Values after ≈ are worked out from the molar mass of the structure shown. Like-named read-outs stand apart in the source and are kept apart here.
Experiments:
[1] = system: Staphylococcus aureus FDA 209P JC-1; test: Antimicrobial activity (minimum inhibitory concentration); type: cell-based; settings: FDA209P; Staphylococcus aureus FDA 209P JC-1, about 10^6 /ml
Description: (§1) Minimum inhibitory concentrations (MIC, μg/ml) of various compounds of formula (I) against various microorganisms (about 10^6 /ml) were measured.

[2] = system: Staphylococcus aureus MS 353 C36; test: as above; type: cell-based; settings: MS353C36; Staphylococcus aureus MS 353 C36, about 10^6 /ml
Description: as §1

[3] = system: Staphylococcus aureus MS 353; test: as above; type: cell-based; settings: MS353; Staphylococcus aureus MS 353, about 10^6 /ml
Description: as §1

[4] = system: Staphylococcus aureus Smith; test: as above; type: cell-based; settings: about 10^6 /ml
Description: as §1

[5] = system: Staphylococcus epidermidis sp-al-1; test: as above; type: cell-based; settings: SPAL1; Staphylococcus epidermidis sp-al-1, about 10^6 /ml
Description: as §1

[6] = system: Staphylococcus pyogenes 1022; test: as above; type: cell-based; settings: Staphylococcus pyogenes 1022, about 10^6 /ml
Description: as §1

[7] = system: Staphylococcus pyogenes N.Y.5; test: as above; type: cell-based; settings: Staphylococcus pyogenes N.Y.5, about 10^6 /ml
Description: as §1

[8] = system: Staphylococcus pyogenes S-23; test: as above; type: cell-based; settings: Staphylococcus aureus, S23; Staphylococcus pyogenes S-23, about 10^6 /ml
Description: as §1

[9] = system: Staphylococcus pyogenes S-23; test: Infectious disease curing effect by oral administration in infected mice; type: in vivo, ICR male mice; settings: Staphylococcus aureus
Description: A pre-incubated test microorganism, Staphylococcus pyogenes S-23, was suspended in a 5% mucin solution and inoculated into the ICR male mice (8 mice per group) abdomen in an amount of 2×10^2. After 1 hour, Compounds (I) of the present invention dissolved or suspended in a phosphate buffer were orally administered to the mice. The mice were inspected for 5 days to determine ED50 (mg/kg) by the Van der Waerden method.

[10] = S23, 120 h, oral, 1 hour after abdominal inoculation of Staphylococcus pyogenes S-23, inspected for 5 days, Van der Waerden method, read-out: ED50

Row | Compound | MIC [1] [µg/mL] | MIC [2] [µg/mL] | MIC [3] [µg/mL] | MIC [4] [µg/mL] | MIC [5] [µg/mL] | MIC [6] [µg/mL] | MIC [7] [µg/mL] | MIC [8] [µg/mL] | ED50 [9, 10] [mg/kg] | ED50 ([9]; S23, po, 120 h) [mg/kg]
1 | CCC1OC(=O)CC(O)C(C)C(OC2OC(C)CC(N(C)C)C2O)C(CC=O)CC(C)C(OC)C=CC(C)=CC1CN(C)C (stereo not drawn) [Compound 7, 9-dihydro-9-O-methyl-23-demycinosyloxy-23-dimethylamino-4'-deoxydesmycosin] | 0.2 (≈ 0.32 µM) | 0.2 (≈ 0.32 µM) | 0.2 (≈ 0.32 µM) | 0.78 (≈ 1.25 µM) | 0.2 (≈ 0.32 µM) | > 100 | 0.2 (≈ 0.32 µM) | 0.2 (≈ 0.32 µM) | 100 to 200 | 
2 | CCC(=O)OC1CC(=O)OC(CC)C(COC2OC(C)C(O)C(OC)C2OC)C=C(C)C=CC(OC)C(C)CC(CC=O)C(OC2OC(C)C(O)C(N(C)C)C2O)C1C (stereo not drawn) [Compound 5, 9-dihydro-9-O-methyl-3-O-propionyldesmycosin] | 0.1 (≈ 0.118 µM) | 0.2 (≈ 0.237 µM) | 0.2 (≈ 0.237 µM) | 0.39 (≈ 0.462 µM) | 0.2 (≈ 0.237 µM) | 50 (≈ 59.2 µM) | 0.05 (≈ 0.0592 µM) | 0.1 (≈ 0.118 µM) | 84 | 
3 | CCCOC1C=CC(C)=CC(COC2OC(C)C(O)C(OC)C2OC)C(CC)OC(=O)CC(OC(C)=O)C(C)C(OC2OC(C)C(O)C(N(C)C)C2O)C(CC=O)CC1C (stereo not drawn) [Compound 9, 9-dihydro-9--O-propyl-3-O-acetyldesmycosin] | 0.39 (≈ 0.455 µM) | 0.78 (≈ 0.909 µM) | 0.39 (≈ 0.455 µM) | 0.78 (≈ 0.909 µM) | 0.78 (≈ 0.909 µM) | > 100 | 0.2 (≈ 0.233 µM) | 0.2 (≈ 0.233 µM) |  | 
4 | CCC1OC(=O)CC(O)C(C)C(OC2OC(C)C(O)C(N(C)C)C2O)C(CC=O)CC(C)C(OC)C=CC(C)=CC1COC1OC(C)C(O)C(OC)C1OC (stereo not drawn) [Compound 1, 9-dihydro-9-O-methyldesmycosin] | 0.1 (≈ 0.127 µM) | 0.2 (≈ 0.254 µM) | 0.2 (≈ 0.254 µM) | 0.39 (≈ 0.495 µM) | ≤ 0.05 |  | ≤ 0.05 | ≤ 0.05 | 100 to 200 | 
5 | CCC1OC(=O)CC(O)C(C)C(OC2OC(C)CC(N(C)C)C2O)C(CC=O)CC(C)C(=O)C=CC(C)=CC1COC1OC(C)C(O)C(OC)C1OC (stereo not drawn) [4'-Deoxydesmycosin, reference compound] |  |  |  |  |  |  |  |  | > 200 | 
6 | CCOC1C=CC(C)=CC(COC2OC(C)C(O)C(OC)C2OC)C(CC)OC(=O)CC(O)C(C)C(OC2OC(C)C(O)C(N(C)C)C2O)C(CC=O)CC1C (stereo not drawn) [Compound 2, 9-dihydro-9-O-ethyldesmycosin] | 0.1 (≈ 0.125 µM) | 0.1 (≈ 0.125 µM) | 0.2 (≈ 0.249 µM) | 0.2 (≈ 0.249 µM) | 0.1 (≈ 0.125 µM) | > 100 | ≤ 0.05 | ≤ 0.05 |  | 
7 | CC[C@H]1OC(=O)C[C@@H](O)[C@H](C)[C@@H](O[C@@H]2O[C@H](C)[C@@H](O[C@H]3C[C@@](C)(O)[C@@H](O)[C@H](C)O3)[C@H](N(C)C)[C@H]2O)[C@@H](CC=O)C[C@@H](C)C(=O)/C=C/C(C)=C/[C@@H]1CO[C@@H]1O[C@H](C)[C@@H](O)[C@@H](OC)[C@H]1OC [Tylosin, reference compound] |  |  |  |  |  |  |  |  |  | > 200
8 | CCC1OC(=O)CC(O)C(C)C(OC2OC(C)C(O)C(N(C)C)C2O)C(CC=O)CC(C)C(OCc2ccccc2)C=CC(C)=CC1COC1OC(C)C(O)C(OC)C1OC (stereo not drawn) [Compound 18, 9-dihydro-9-O-benzyldesmycosin] | 0.2 (≈ 0.231 µM) | 0.2 (≈ 0.231 µM) | 0.2 (≈ 0.231 µM) | 0.39 (≈ 0.451 µM) | 0.39 (≈ 0.451 µM) | 100 (≈ 116 µM) | 0.1 (≈ 0.116 µM) | 0.1 (≈ 0.116 µM) |  | 
9 | CCOC1C=CC(C)=CC(COC2OC(C)C(O)C(OC)C2OC)C(CC)OC(=O)CC(OC(C)=O)C(C)C(OC2OC(C)C(O)C(N(C)C)C2O)C(CC=O)CC1C (stereo not drawn) [Compound 8, 9-dihydro-9-O-ethyl-3-O-acetyldesmycosin] | 0.2 (≈ 0.237 µM) | 0.39 (≈ 0.462 µM) | 0.39 (≈ 0.462 µM) | 0.78 (≈ 0.924 µM) | 0.39 (≈ 0.462 µM) | > 100 | 0.1 (≈ 0.118 µM) | 0.1 (≈ 0.118 µM) | 50 | 
10 | CCC1OC(=O)CC(OC(C)=O)C(C)C(OC2OC(C)CC(N(C)C)C2O)C(CC=O)CC(C)C(OC)C=CC(C)=CC1COC1OC(C)C(O)C(OC)C1OC (stereo not drawn) [Compound 13, 9-dihydro-9-O-methyl-3-O-acetyl-4'-deoxydesmycosin] | 0.2 (≈ 0.246 µM) | 0.2 (≈ 0.246 µM) | 0.2 (≈ 0.246 µM) | 0.39 (≈ 0.479 µM) | 0.39 (≈ 0.479 µM) | > 100 | 0.1 (≈ 0.123 µM) | 0.1 (≈ 0.123 µM) |  | 

Reference: patent publication US5026832A, “9-dihydro-9-O-alkyldesmycosin derivatives” (Toyo Jozo Co., Ltd., priority 1988, dated 1991)
